In patent publication US10407666B2, “Recombinant vectors” (priority 2008, dated 2019):
“Also recorded” adds a separate entry of the source.

B1: yCD2 protein: yeast cytosine deaminase with A23L/V108I/I140L substitutions, human codon optimized gene (SEQ ID NO:4) (protein, UniProt Q12178 1-158, looked up, variant A23L V108I I140L)
Cytosine deaminase: MVTGGMASKWDQKGMDIAYEEALLGYKEGGVPIGGCLINNKDGSVLGRGHNMRFQKGSATLHGEISTLENCGRLEGKVYKDTTLYTTLSPCDMCTGAIIMYGIPRCVIGENVNFKSKGEKYLQTRGHEVVVVDDERCKKLMKQFIDERPQDWFEDIGE

Assays:
[1] = test system: recurrent anaplastic oligodendroglioma; assay: Patient dog with spontaneous recurrent anaplastic oligodendroglioma, vector by CED plus 5-FC; conditions: second cycle 160 mg/kg/day by mouth, stopped after fifth day
[2] = test system: Mouse CT26 tumor explants; assay: 5-FC cell killing assay (MTS) on CT26 tumor explants; type: cell-based; conditions: explant animal 31: CT26, AC3-yCD2(V) E5 + 5-FC, 3.5 5-FC dosings
U-87 cells = assay: yCD protein level in infected U-87 cells (FIG. 4); type: cell-based, human

Row | Molecule | adverse event [1] | 5-FC sensitivity IC50 (mM) [2] | CD protein level compared to wild type yCD protein (U-87 cells)
1 | Nc1nc(=O)[nH]cc1F [Vector 5-FC, 5-fluorocytosine] | development of rash | poorly responsive; also recorded: Not sensitive | 
2 | B1 |  |  | higher levels
